In patent US20260297060A1, “COMPOUNDS FOR THE DEGRADATION OF MUTANT BRAF” (C4 THERAPEUTICS, INC., priority 2023, published 2026):
Like-named read-outs stand apart in the source and are kept apart here.

Experiments:
Assay type in all cases: in vivo, BALB/c nude mice
[1] = Example 6 pharmacokinetics assay for efficacy study (plasma, liver); settings: 10 mg/kg, p.o., BID × 21 days; for concentration at 6 h: mouse, po
Protocol: (§1) For efficacy study, compounds were tested in the A375 human melanoma xenografts. Known BRAF inhibitors encorafenib, and dabrafenib were used as positive controls. Encorafenib and dabrafenib were administered to BALB/c nude mice bearing A375 tumors on PG-D1 and dosed PO daily (QD) for 3 weeks. Encorafenib was dosed at 35 mg/kg. Dabrafenib was dosed at 100 mg/kg. Compound 83, Compound 93, Compound 70, and Compound 54 were administered to BALB/c nude mice bearing A375 tumors on PG-DO and dosed PO twice per day (BID) for 3 weeks. Compound 83, Compound 93, Compound 70, and Compound 54 were dosed at 10 mg/kg.
(§2) The plasma samples were collected at predetermined time points for PK analysis. The mice were euthanized at predetermined time points post the treatment. The blood samples were collected into the 1.5 mL Eppendorf tubes containing 15 μL of 0.5 M EDTA-K2. And then the anticoagulant blood samples were centrifuged at 2,500 g at 4° C. for 15 minutes. The plasma samples were separated into 2 aliquots. The 1st was used for PK analysis, and the 2nd served as backup. The samples were stored at −80° C. before bioanalysis.
(§3) Liver samples were collected at predetermined time points for PK analysis. The left lobe of the liver was dissected out and split into 2 parts. The 1st part was used for PK analysis and the 2nd part served as the backup for the study. The samples were transferred into pre-labeled tubes and quickly froze in liquid nitrogen within 2 minutes after dissection. The samples were stored at −80° C. before bioanalysis.
For efficacy study, the harvested plasma and liver were processed for pharmacokinetics analysis by LC/MS/MS with a concentration range of 2.00-2000 ng/mL for Encorafenib and Dabrafenib in plasma, 0.20-200 ng/mL for Encorafenib and Dabrafenib in liver, 50.0-50000 ng/mL for compound 83 and compound 70 in plasma, 20.0-20000 ng/mL for Compound 93 and Compound 54 in plasma, 5.00-5000 ng/mL for compound 93, compound 83, compound 70 and compound 54 in liver.

[2] = test system: A375 human melanoma xenografts; assay: Example 6 efficacy study in A375 human melanoma xenografts (tumor volume, T/C, TGI); settings: 10 mg/kg, p.o., BID × 21 days; for T/C / TGI / Tumor Size on PG-D21: PG-D21; for Tumor Size on PG-D21 / Tumor volume: Mean ± SEM
Protocol: as §1
The A375 tumor cells were maintained in vitro in DMEM medium supplemented with […] and 1% Penicillin-Streptomycin at 37° C. in an atmosphere of 5% CO2 in air. The tumor cells were routinely subcultured twice weekly. The cells growing in an exponential growth phase were harvested and counted for tumor inoculation.
Each mouse was inoculated subcutaneously at the right flank with A375 tumor cells (5×10^6) in 0.2 mL of PBS with Matrigel (PBS: Matrigel=1:1) supplemented for tumor development. Animals were grouped for the treatment on day 16 after tumor inoculation when the average tumor volume reached 221 mm^3 for efficacy study and 386 mm^3 for PKPD study. The test articles administration and the animal numbers in each group are shown in the above experimental Tables.
Prior to the onset of drug treatment, mice were measured for tumor size in two dimensions using a caliper, and the tumor volume (mm^3) was calculated using formula V=0.5 a×b^2 where a and b are the long and short diameters of the tumor in mm, respectively. Mice were randomized into different treatment groups based on the tumor volume.
The major endpoint was to see if the tumor growth could be delayed or mice could be cured. The tumor size was then used for calculations of T/C value. The T/C value (in percent) is an indication of antitumor effectiveness; T and C are the mean volumes of the treated and control groups, respectively on specified day.
TGI was calculated for each group using the formula: TGI (%)=[1−(Ti−T0)/(Ci−C0)]×100; Ti is the average tumor volume of a treatment group on a given day, T0 is the average tumor volume of the treatment group on the day of treatment start, Ci is the average tumor volume of the vehicle control group on the same day with Ti, and C0 is the average tumor volume of the vehicle group on the day of treatment start.

[3] = Example 6 pharmacokinetics assay for PKPD study (plasma, tumor, liver); settings: 10 mg/kg, single dose; for concentration at 6 h / concentration at 12 h / concentration at 1 h / concentration at 24 h: mouse, po
Protocol: For the pharmacokinetic/pharmacodynamic (PKPD) study, compounds were tested in the A375 human melanoma xenografts. Known BRAF inhibitors encorafenib, and dabrafenib were used as positive controls. Encorafenib, dabrafenib, Compound 83, Compound 93, Compound 70, and Compound 54 were administered to BALB/c nude mice bearing A375 tumors on PG-D1 and dosed orally (PO) once. Encorafenib was dosed at 35 mg/kg. Dabrafenib was dosed at 100 mg/kg. Compound 83, Compound 93, Compound 70, and Compound 54 were dosed at 10 mg/kg. The plasma and tumor samples were collected at 1, 6, 12 and 24 hours, and liver samples were collected at 6 hours and 12 hours post the single dose. This study was non-GLP study.
as §2
The tumor samples were collected at predetermined time points for PK and WB analysis (B-RAF and p-ERK). The tumor was dissected out and split into 3 parts. The 1st part was used for PK analysis, the 2nd part was used for WB analysis and the last one served as backup for study. The samples were transferred into pre-labeled tubes and quickly froze in liquid nitrogen within 2 minutes after dissection. The samples were stored at −80° C. before bioanalysis.
as §3
For PKPD study, the harvested plasma, tumor and liver were processed for pharmacokinetics analysis by LC/MS/MS with a concentration range of 0.5-1000 ng/mL for Encorafenib and Dabrafenib in plasma, 0.05-100 ng/mL for Encorafenib and Dabrafenib in tumor, 0.2-200 ng/mL for Encorafenib and Dabrafenib in liver, 2.0-2000 ng/mL for compound 93, compound 83, compound 54 and compound 70 in liver, 50.0-50000 ng/mL for compound 83 and compound 70 in plasma, 0.5-1000 ng/mL for compound 83 and compound 70 in tumor, 1.0-2000 ng/mL for compound 93 in plasma, 10.0-20000 ng/mL for compound 54 in plasma, 0.5-500 ng/mL for compound 93 and compound 54 in tumor.

CCN(C)S(=O)(=O)Nc1ccc(F)c(Oc2ccc3ncn([C@H]4COC5(CCN(C6CC(c7cc8c(cc7F)c(N7CCC(=O)NC7=O)nn8C)C6)CC5)C4)c(=O)c3c2)c1C#N (single isomer, unassigned) [Compound 70]
Concentration in Liver (mean ± SEM) ([1]; 6 h): 6392 ± 570 ng/g | Concentration in Plasma (mean ± SEM) ([1]; 6 h): 16083 ± 1345 ng/mL | T/C [2]: 0.9% | TGI [2]: 110.1% | Tumor Size on PG-D21 [2]: 19 ± 2 mm^3 | Tumor volume ([2]; day 0): 221 ± 10 mm^3 | Tumor volume ([2]; day 4): 111 ± 13 mm^3 | Tumor volume ([2]; day 7): 66 ± 6 mm^3 | Tumor volume ([2]; day 11): 44 ± 3 mm^3 | Tumor volume ([2]; day 14): 34 ± 2 mm^3 | Tumor volume ([2]; day 18): 24 ± 2 mm^3 | Tumor volume ([2]; day 21): 19 ± 2 mm^3 | Concentration in Plasma (mean ± SEM) ([3]; 1 h): 15100 ± 3559 ng/mL | Concentration in Tumor (mean ± SEM) ([3]; 1 h): 816 ± 239 ng/g | Concentration in Liver (mean ± SEM) ([3]; 6 h): 4363 ± 1423 ng/g | Concentration in Plasma (mean ± SEM) ([3]; 6 h): 8563 ± 2312 ng/mL | Concentration in Tumor (mean ± SEM) ([3]; 6 h): 1529 ± 458 ng/g | Concentration in Liver (mean ± SEM) ([3]; 12 h): 921 ± 317 ng/g | Concentration in Plasma (mean ± SEM) ([3]; 12 h): 2105 ± 800 ng/mL | Concentration in Tumor (mean ± SEM) ([3]; 12 h): 564 ± 206 ng/g | Concentration in Plasma (mean ± SEM) ([3]; 24 h): 106 ± 10.8 ng/mL | Concentration in Tumor (mean ± SEM) ([3]; 24 h): 21.9 ± 4.93 ng/g

CCN(C)S(=O)(=O)Nc1ccc(F)c(Oc2ccc3ncc([C@@H]4COC5(CCN(C6CCC(c7cc8c(cc7F)c(N7CCC(=O)NC7=O)nn8C)CC6)CC5)C4)nc3c2)c1C#N (single isomer, unassigned) [Compound 54]
concentration at 6 h ([1]; liver, read-out: Concentration in Liver (mean ± SEM)): 4240 ± 955 ng/g | concentration at 6 h ([1]; plasma, read-out: Concentration in Plasma (mean ± SEM)): 3990 ± 634 ng/mL | T/C [2]: 4.1% | TGI [2]: 106.6% | Tumor Size on PG-D21 [2]: 90 ± 27 mm^3 | Tumor volume ([2]; day 0): 221 ± 11 mm^3 | Tumor volume ([2]; day 4): 132 ± 13 mm^3 | Tumor volume ([2]; day 7): 90 ± 14 mm^3 | Tumor volume ([2]; day 11): 65 ± 13 mm^3 | Tumor volume ([2]; day 14): 57 ± 13 mm^3 | Tumor volume ([2]; day 18): 53 ± 13 mm^3 | Tumor volume ([2]; day 21): 90 ± 27 mm^3 | concentration at 6 h ([3]; liver, 6 h, read-out: Concentration in Liver (mean ± SEM)): 4470 ± 501 ng/g | concentration at 12 h ([3]; liver, 12 h, read-out: Concentration in Liver (mean ± SEM)): 650 ± 84.2 ng/g | concentration at 1 h ([3]; plasma, 1 h, read-out: Concentration in Plasma (mean ± SEM)): 7740 ± 1180 ng/mL | concentration at 6 h ([3]; plasma, 6 h, read-out: Concentration in Plasma (mean ± SEM)): 3410 ± 703 ng/mL | concentration at 12 h ([3]; plasma, 12 h, read-out: Concentration in Plasma (mean ± SEM)): 605 ± 124 ng/mL | concentration at 24 h ([3]; plasma, 24 h, read-out: Concentration in Plasma (mean ± SEM)): 54 ± 9.5 ng/mL | concentration at 1 h ([3]; tumor, 1 h, read-out: Concentration in Tumor (mean ± SEM)): 513 ± 28.8 ng/g | concentration at 6 h ([3]; tumor, 6 h, read-out: Concentration in Tumor (mean ± SEM)): 931 ± 147 ng/g | concentration at 12 h ([3]; tumor, 12 h, read-out: Concentration in Tumor (mean ± SEM)): 477 ± 125 ng/g | concentration at 24 h ([3]; tumor, 24 h, read-out: Concentration in Tumor (mean ± SEM)): 29.8 ± 2.9 ng/g
